Read-outs that look alike come from different tables or passages of the source.
Legend:
[1] = clinical; details: human, in vivo, po
[2] = target: panel of 63 kinases other than PLK1; test: kinase panel selectivity (63 kinases); format: biochemical
[3] = target: PLK1 (Homo sapiens, UniProt P53350); test: biochemical assays, panel of 296 kinases; details: including other PLK members
[4] = system: HT29 human colon adenocarcinoma xenografts; test: HT29 xenograft, combination with irinotecan; format: in vivo; details: in combination with irinotecan
[5] = pharmacologic parameters of onvansertib; format: in vivo
[6] = system: patients with mCRPC; test: onvansertib plus abiraterone in patients with mCRPC (NCT03414034); format: in vivo, human
[7] = system: disseminated model of AML; test: disseminated model of AML, combination with cytarabine; format: in vivo; details: in combination therapy with cytarabine
[8] = target: T1, CYP1A2 (Homo sapiens, UniProt P05177); test: CYP inhibition in human liver microsomes; format: in vitro ADME
T1 construct: was investigated using human liver microsomes; from tissue; host or cells: human liver microsomes
T1 sequence (P05177 1-516): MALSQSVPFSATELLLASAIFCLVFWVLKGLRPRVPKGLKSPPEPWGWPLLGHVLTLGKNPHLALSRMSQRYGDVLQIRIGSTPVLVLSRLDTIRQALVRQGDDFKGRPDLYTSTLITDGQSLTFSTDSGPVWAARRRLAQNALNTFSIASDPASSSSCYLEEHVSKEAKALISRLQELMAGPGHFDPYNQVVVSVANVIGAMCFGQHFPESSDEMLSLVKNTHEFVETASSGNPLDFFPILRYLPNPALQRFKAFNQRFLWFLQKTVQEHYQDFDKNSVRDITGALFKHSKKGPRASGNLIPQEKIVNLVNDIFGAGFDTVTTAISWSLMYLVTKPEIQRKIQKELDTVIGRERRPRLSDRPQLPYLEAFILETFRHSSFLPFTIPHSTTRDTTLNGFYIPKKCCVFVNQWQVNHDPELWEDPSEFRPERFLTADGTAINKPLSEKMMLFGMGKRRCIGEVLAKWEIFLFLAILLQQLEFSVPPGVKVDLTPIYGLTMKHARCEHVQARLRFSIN
Text: (§1) In Table 1, IC50 is shown as mean±SEM (standard error of mean).

[9] = system: SUM159 xenografts; test: SUM159 mouse xenograft; format: in vivo; details: at 21 days; onvansertib 120 mg/Kg P.O. day 1 and 2 weekly or paclitaxel 10 mg/Kg I.P. day 1 weekly
[10] = system: CYP2C8, CYP2C9, CYP2C19, CYP2D6, CYP3A4; test: CYP inhibition in human liver microsomes, summary over isoforms; format: in vitro ADME; details: range over isoforms
Text: as §1

[11] = system: AML cell lines; test: cell proliferation in AML cell lines; format: cell-based
[12] = concentration for anti-tumoral activity in mice; format: in vivo
Text: as §1

[13] = system: metastatic breast cancer patients; details: cited from earlier work
[14] = system: patients with AML; details: in combination with LDAC; cited from earlier work
[15] = system: patients with AML; details: intravenously in combination with LDAC; treatment-naïve AML; cited from earlier work
[16] = system: patients with metastatic TNBC; details: with chemotherapy vs chemotherapy and placebo; tumors strongly positive for PD-L1 (CPS>10); cited from earlier work

Sequence of PLK1 (P53350 whole entry): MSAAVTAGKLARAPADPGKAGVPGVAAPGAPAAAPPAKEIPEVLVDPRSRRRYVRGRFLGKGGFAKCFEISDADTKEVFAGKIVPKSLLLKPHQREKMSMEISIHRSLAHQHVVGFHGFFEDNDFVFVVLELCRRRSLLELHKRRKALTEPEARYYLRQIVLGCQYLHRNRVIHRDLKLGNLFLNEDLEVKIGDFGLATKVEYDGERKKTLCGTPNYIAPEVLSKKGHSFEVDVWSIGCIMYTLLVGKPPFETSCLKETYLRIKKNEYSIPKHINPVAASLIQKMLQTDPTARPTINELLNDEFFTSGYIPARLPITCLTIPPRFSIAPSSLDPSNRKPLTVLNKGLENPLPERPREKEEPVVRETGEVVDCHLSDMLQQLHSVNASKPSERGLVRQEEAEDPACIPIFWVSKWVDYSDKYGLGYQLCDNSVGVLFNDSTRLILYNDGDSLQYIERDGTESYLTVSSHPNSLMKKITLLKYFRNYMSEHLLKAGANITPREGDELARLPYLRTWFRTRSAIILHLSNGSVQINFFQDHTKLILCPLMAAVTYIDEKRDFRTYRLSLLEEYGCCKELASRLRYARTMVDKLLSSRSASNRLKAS

For `CN1CCN(c2ccc(OC(F)(F)F)c(Nc3ncc4c(n3)-c3c(c(C(N)=O)nn3CCO)CC4)c2)CC1` [onvansertib, 1-(2-hydroxyethyl)-8-{[5-(4-methylpiperazin-1-yl)-2-(trifluoromethoxy)phenyl]amino}-4,5-dihydro-1H-pyrazolo[4,3-h]quinazoline-3-carboxamide], the half-life [1] was 1200 to 1800 min, the IC50 [2] was over 500 nM and the “specificity for PLK1 among a panel of 296 kinases” value [3] was “high specificity”. The “tumor regression compared to each agent alone” value [4] was “enhanced tumor regression”, the half-life ([5]; in vivo) was 1440 min and the oral bioavailability ([5]; rodent and nonrodent species) was “good oral bioavailability”. The “evaluable patients who met the primary efficacy endpoint” value ([6]; 12 mg/m^2, 14+7 regimen with abiraterone, 5 evaluable) was 60%, the hematological toxicities reported ([6]; 12 mg/m^2 QD 14+7 regimen with abiraterone QD, 9 patients) was “no Grade 2 or higher hematological toxicities” and the “evaluable patients who met the primary efficacy endpoint” value ([6]; 18 mg/m^2, 5+9 regimen, 10 evaluable) was 30%. For the same compound, the survival of animals [7] was “prolonged survival”, the “inhibitory effects against CYP1A2” value [8] was “No significant inhibitory effects” and the “tumor growth inhibition, difference compared to controls” value [9] was −0.406. The IC50 [10] was 20 to 66 µM, the “inhibition of cell proliferation” value [11] was “nanomolar concentrations” and the “concentrations relevant to achieve significant anti-tumoral activity” value [12] was about 1 µM.

For `CC(=O)O[C@H]1C(=O)[C@@]2(C)[C@H]([C@H](OC(=O)c3ccccc3)[C@]3(O)C[C@H](OC(=O)[C@H](O)[C@@H](NC(=O)c4ccccc4)c4ccccc4)C(C)=C1C3(C)C)[C@]1(OC(C)=O)CO[C@@H]1C[C@@H]2O` [paclitaxel, 5β,20-Epoxy-1,2α,4,7β,10β,13α-hexahydroxytax-11-en-9-one 4,10-diacetate 2-benzoate 13-ester with (2R,3S)-N-benzoyl-3-phenylisoserine], the “Grade 3 anemia” value ([13]; 80 mg/m^2 weekly, 212 patients) is listed as 9%, the “Grade 3 or 4 neutropenia” value ([13]; 80 mg/m^2 weekly, 212 patients) is listed as 15% and the responses ([13]; 45 assessable patients with prior taxane therapy) is listed as 15.6%. For the same compound, the responses ([13]; 131 assessable patients with prior anthracycline therapy) was 17.6%, the overall response rate ([13]; 177 assessable patients) was 21.5% and the “median time to progression” value ([13]; assessable patients) was 142 days. For the same compound, the “grade 3 neuropathy” value ([13]; in vivo) was 9%, the “grade 4 neuropathy” value ([13]; in vivo) was “no patient” and the “median number of courses of therapy until development of grade 2 or 3 neuropathy” value ([13]; in vivo) was “five”. For the same compound, the “median time to progression” value ([13]; no prior chemotherapy for metastatic disease) was 174 days, the “median time to progression” value ([13]; one prior regimen) was 140 days and the “median time to progression” value ([13]; two prior regimens) was 85 days. For the same compound, the “tumor growth inhibition, difference compared to controls” value [9] was −0.337.

In the case of `CC[C@@H]1C(=O)N(C)c2cnc(Nc3ccc(C(=O)N[C@H]4CC[C@H](N5CCN(CC6CC6)CC5)CC4)cc3OC)nc2N1C(C)C` [volasertib], the “benefit of the combination” value [14] is given as “no benefit”, the “risk of severe infections” value [14] is given as “increased risk of severe infections” and the “OS compared with LDAC alone” value [15] is given as “significant increase in OS”.

For “Pembrolizumab: a monoclonal antibody directed against the PD-1 receptor”, the “reduction of the risk of death” value [16] is listed as 27%.

— patent US20260076970A1, “CANCER TREATMENT USING MTDP INHIBITORS AND PLK1 INHIBITORS” (Cardiff Oncology, Inc., priority 2022, published 2026)
